Results as given in PMC6075749 (PLoS ONE, 2018).
Where “and” joins values, the source holds several entries; their conditions need not be identical. Equal values may be shown once. Entries after “also recorded” stand apart in the source; their conditions may differ. Read-outs that look alike come from different tables or passages of the source.

How the values were obtained:
pseudolysin [1] = biological target: T1, pseudolysin (Pseudomonas aeruginosa, UniProt P14756); design: purchased Calbiochem (San Diego, CA, USA); conditions: ref Grobelny D et al. [58]; cited from earlier work
auerolysin = biological target: T2, auerolysin (Staphylococcus aureus, UniProt P81177); assay: Initial rate fluorescence assay, auerolysin, substrate Mca-[…](Dnp)-OH (Km, Ki); assay type: biochemical
T2 construct: purchased BioCentrum Ltd (Kraków, Poland)
Method: (§1) To determine the kinetic and inhibitor kinetic coefficients Km, and Ki, initial rate experiments were performed using a Perkin Elmer LS 50 Luminescence spectrometer and the FL WinLab Software Package (Perkin Elmer). The reactions were followed for one minute and during that time 600 data points were collected. The excitation and emission wavelengths for the two fluorescence quenched MMP peptide substrates, McaPLGLDpaAR-NH2 and Mca-[…](Dpn)-OH were; λex = 320 nm, λem = 405 nm and a slit width = 10 nm at both wavelengths. All assays were performed at 37°C in an assay buffer of 0.1 M Hepes pH 7.5, 0.005% Brij-35, 10 mM CaCl2 and a total assay volume of 100 μl.
(§2) The Km value was calculated from non-linear regression of the Michaelis-Menten equation using the Enzyme kinetic module in GraphPad Prism 5.
(§3) A fixed substrate concentration of 5.0 μM and / or 10 μM and a fixed enzyme concentration along with varying concentrations of potential inhibitor were used to determine the inhibitory capacity of the two compounds. […] For a competitive inhibitor, the IC50 value equals Ki(1+[S]/Km). For tight binding competitive inhibitors (Ki ≤ [E]), the values of Ki and [E] were obtained by both a dose response plot (vi/v0 against [I]) using the Morrison equation [71] (2) and through the linear Henderson Plot (Eq 3). For tight binding inhibitors, the enzyme was pre-incubated for 15 min at 37°C in the presence of inhibitor and the reaction was started by the addition of substrate. Graph Pad Prism 5 was used to calculate Ki and [E] values.

[2] = test system: MMP-14 (catalytic domain); conditions: cited from earlier work
[3] = biological target: T3, recombinant human MMP-14 catalytic domain (Homo sapiens, UniProt P50281); assay: Initial rate fluorescence assay, MMP-14 catalytic domain, substrate Mca-PLGLDpaAR-NH2 (Km, Ki); assay type: biochemical
T3 construct: recombinant MMP-14 (catalytic domain) were from Calbiochem; purchased Calbiochem (San Diego, CA, USA)
Method: as §1, §2, §3

thermolysin [4] = biological target: T4, thermolysin (Bacillus thermoproteolyticus, UniProt P00800); design: purchased Calbiochem (San Diego, CA, USA); method as in Grobelny D et al. [58]; conditions: ref Grobelny D et al. [58]; cited from earlier work
MMP-9 = conditions: cited from earlier work
thermolysin [5] = biological target: T4, thermolysin; assay: Initial rate fluorescence assay, thermolysin, substrate Mca-RPPGFSAFK(Dnp)-OH (Km, inhibition); conditions: N.I. = no inhibition up to 100 μM of inhibitor
Method: as §1, §2
(§4) A fixed substrate concentration of 5.0 μM and / or 10 μM and a fixed enzyme concentration along with varying concentrations of potential inhibitor were used to determine the inhibitory capacity of the two compounds. […] For a competitive inhibitor, the IC50 value equals Ki(1+[S]/Km). For tight binding competitive inhibitors (Ki ≤ [E]), the values of Ki and [E] were obtained by both a dose response plot (vi/v0 against [I]) using the Morrison equation [71] […]
(§5) The IC50 values were determined from a dose response plot vi/v0 vs log [Inhibitor] as described previously.

pseudolysin [6] = biological target: T1, pseudolysin; assay: Initial rate fluorescence assay, pseudolysin, substrate Mca-RPPGFSAFK(Dnp)-OH (Km, inhibition); conditions: N.I. = no inhibition up to 100 μM of inhibitor
Method: as §1, §2, §4, §5

[7] = biological target: four forms of activated MMP-9 (Homo sapiens, UniProt P14780); assay: Ki across the four forms of activated MMP-9 (summary); assay type: biochemical; conditions: ratio of Ki values, compound 1b vs galardin
Method: as §1, §3

[8] = test system: COc1ccc2c(CC(=O)N[C@@H](CCCNC(=N)N)C(=O)N3CCC[C@H]3C(=O)N3CCC[C@H]3C(=O)NCC(=O)N[C@@H](Cc3ccccc3)C(=O)N[C@@H](CO)C(=O)N[C@@H](C)C(=O)N[C@@H](Cc3ccccc3)C(=O)N[C@@H](CCCCNc3ccc([N+](=O)[O-])cc3[N+](=O)[O-])C(=O)O)cc(=O)oc2c1; assay: Initial rate fluorescence assay, auerolysin, substrate Mca-[…](Dnp)-OH (Km, Ki); assay type: biochemical, staphylococcus aureus; conditions: other: low precision; Km far above highest usable substrate concentration (10 μM); pH 7.5; 37.0 °C
Method: as §1, §2, §3

[9] = test system: COc1ccc2c(CC(=O)N[C@@H](CCCNC(=N)N)C(=O)N3CCC[C@H]3C(=O)N3CCC[C@H]3C(=O)NCC(=O)N[C@@H](Cc3ccccc3)C(=O)N[C@@H](CO)C(=O)N[C@@H](C)C(=O)N[C@@H](Cc3ccccc3)C(=O)N[C@@H](CCCCNc3ccc([N+](=O)[O-])cc3[N+](=O)[O-])C(=O)O)cc(=O)oc2c1; assay: purified protein, by the assay type; conditions: pH 7.5, 37.0 °C

T2 sequence (P81177 209-509): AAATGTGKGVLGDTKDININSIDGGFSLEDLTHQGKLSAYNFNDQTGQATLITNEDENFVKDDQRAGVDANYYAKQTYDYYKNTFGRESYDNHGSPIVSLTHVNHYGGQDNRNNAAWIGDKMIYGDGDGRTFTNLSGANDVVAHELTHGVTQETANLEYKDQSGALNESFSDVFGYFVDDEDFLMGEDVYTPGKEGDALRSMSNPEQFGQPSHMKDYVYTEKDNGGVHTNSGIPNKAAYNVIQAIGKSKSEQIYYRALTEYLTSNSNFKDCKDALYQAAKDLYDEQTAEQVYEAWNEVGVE
T4 sequence (P00800 233-548): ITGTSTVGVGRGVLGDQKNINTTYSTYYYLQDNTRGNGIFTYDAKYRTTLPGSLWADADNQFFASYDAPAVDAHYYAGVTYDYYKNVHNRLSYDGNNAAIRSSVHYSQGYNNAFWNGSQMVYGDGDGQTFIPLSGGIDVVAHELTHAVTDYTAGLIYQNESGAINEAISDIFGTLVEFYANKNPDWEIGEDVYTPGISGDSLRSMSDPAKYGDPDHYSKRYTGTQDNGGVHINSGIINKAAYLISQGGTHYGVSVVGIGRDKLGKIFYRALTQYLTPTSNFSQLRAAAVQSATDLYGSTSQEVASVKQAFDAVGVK
T1 sequence (P14756 198-498): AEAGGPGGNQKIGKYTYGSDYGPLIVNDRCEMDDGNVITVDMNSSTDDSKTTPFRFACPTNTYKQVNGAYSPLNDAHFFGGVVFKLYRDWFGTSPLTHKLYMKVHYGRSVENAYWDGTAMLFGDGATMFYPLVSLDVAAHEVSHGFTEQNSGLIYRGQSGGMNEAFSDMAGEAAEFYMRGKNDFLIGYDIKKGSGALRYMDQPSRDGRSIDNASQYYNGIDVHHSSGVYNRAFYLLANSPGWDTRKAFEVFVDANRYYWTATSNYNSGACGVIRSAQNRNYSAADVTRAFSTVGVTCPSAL
Chain of four forms of activated MMP-9 (P14780 107-508 limits assumed): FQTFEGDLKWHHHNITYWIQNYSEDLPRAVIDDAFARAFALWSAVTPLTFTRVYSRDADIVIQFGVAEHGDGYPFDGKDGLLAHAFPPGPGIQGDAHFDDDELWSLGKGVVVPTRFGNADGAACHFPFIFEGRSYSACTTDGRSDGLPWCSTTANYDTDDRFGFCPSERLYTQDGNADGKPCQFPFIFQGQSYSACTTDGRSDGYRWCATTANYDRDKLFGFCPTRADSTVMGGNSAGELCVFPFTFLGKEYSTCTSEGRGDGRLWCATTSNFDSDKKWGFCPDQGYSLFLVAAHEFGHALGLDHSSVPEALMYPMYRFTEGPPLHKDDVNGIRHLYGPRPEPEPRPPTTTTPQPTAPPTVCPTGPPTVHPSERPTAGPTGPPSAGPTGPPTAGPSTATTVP

CNC(=O)[C@H](Cc1c[nH]c2ccccc12)NC(=O)[C@@H](CC(=O)NO)CC(C)C [Galardin]
Ki (pseudolysin [1]): 20000 pM | IC50 (auerolysin): 500000 ± 40000 pM | Ki (auerolysin; Ki app from the slope of the Henderson plot, 3.6 nM enzyme, r2 = 0.84, N = 16): 500000 ± 60000 pM | Ki (auerolysin; Ki from Henderson plot, from Ki app, 3.6 nM enzyme): 450000 ± 50000 pM | Ki (auerolysin; Ki from IC50 (dose response plot, Eq (1))): 450000 pM | Ki (auerolysin; Ki, from dose response plot using Eq (1), one experiment): 452000 ± 35000 pM | binding to auerolysin, times weaker than binding to thermolysin and pseudolysin (auerolysin; ratio of Ki values): about 25 times | IC50 [2]: 13400 pM | Ki ([3]; Ki ± s.d. per experiment, [S] 5.0 μM, read-out: Ki, Morrison equation, individual experiment): 950 pM and 780 pM and 820 pM and 910 pM and 890 pM | Ki ([3]; Ki ± s.d. per experiment, [S] 5.0 or 10.0 μM, read-out: Ki, Henderson plot, individual experiment): 0.78 nM (2×) and 0.86 nM and 0.76 nM and 1.16 nM | Ki ([3]; average ± S.E.M. of independent experiments, 37°C, pH 7.5, read-out: Ki, Henderson plot, average): 870 ± 70 pM | Ki ([3]; average ± S.E.M. of independent experiments, read-out: Ki, Morrison equation, average): 870 pM | Ki (thermolysin [4]): 20000 pM | IC50 (MMP-9): […]

O=C(NO)[C@H]1[C@@H](O)[C@H](O)[C@H](O)CN1S(=O)(=O)c1ccc(Oc2ccccc2)cc1 [compound 1b]
Inhibitory effect (Ki: N.I.) (auerolysin; N.I. = no inhibition up to 100 μM of inhibitor): no inhibitory effect; also recorded: N.I.^c | Ki ([3]; Ki, Henderson plot, average, average ± S.E.M. of independent experiments, 37°C, pH 7.5): 88 pM and 90 pM | Ki ([3]; Ki, Henderson plot, individual experiment, Ki ± s.d. per experiment, [S] 5.0 or 10.0 μM): 74 pM and 128 pM and 81 pM and 70 pM and 80 pM | Ki ([3]; Ki, Morrison equation, average, average ± S.E.M. of independent experiments): 160 ± 20 pM | Ki ([3]; Ki, Morrison equation, individual experiment, Ki ± s.d. per experiment, [S] 5.0 μM): 0.16 nM (2×) and 0.21 nM | interaction with MMP-14, times stronger than galardin ([3]; ratio of Ki values, compound 1b vs galardin): 10 times | Ki ([3]; read-out: Ki, Morrison equation, individual experiment): 100 ± 60 pM | Inhibitory effect (Ki: N.I.) (thermolysin [5]): no inhibitory effect and N.I. | Inhibitory effect (Ki: N.I.) (pseudolysin [6]): no inhibitory effect and N.I. | Ki (MMP-9): 97 pM | interaction with MMP-9, times stronger than galardin [7]: 5 to 10 times

auerolysin (Staphylococcus aureus)
Km [8]: 47 ± 41 µM

pseudolysin (Pseudomonas aeruginosa PAO1)
Km ([9]; other: low precision, Km far above highest usable substrate concentration (10 μM)): 24 ± 8 µM

thermolysin (Bacillus thermoproteolyticus)
Km ([9]; other: substrate 0.5 to 10.0 μM): 6 ± 1 µM
